How the values were obtained:
Type in all cases: cell-based
[1] = test system: human keratinocytes; test: Lipid Analysis (ceramides expression); settings: for CERAMIDES % of CONTROL / CERAMIDES (ng/μg PROTEIN ± S.D.): three days
Experimental: (§1) Normal human keratinocytes, isolated from neonatal foreskin by trypsin treatment, were grown in Dulbecco's Modified Eagle's Medium (DMEM, Life Technologies, Grand Island, N.Y.) with 10% fetal bovine serum in the presence of irradiated mouse fibroblasts for establishing dividing keratinocyte colonies. Cells were incubated until their second passage and stored at −70° C. for future use. All incubations took place at 37° C. with 5% CO2. Frozen second passage keratinocytes were thawed and plated in T-175 flasks (Corning, Corning, N.Y.) with DMEM and grown for five days. After reaching 80% confluence, they were trypsinized and seeded into 6-well plates containing keratinocyte growth medium (KGM, Clonetics, San Diego, Calif.) with 0.15 mM calcium.
A sample of the keratinocytes that were grown in the keratinocyte culture described above were placed in KGM (2 ml per well) at 0.2 million per 6-well plates and re-grown for five days until approximately 20% confluence was reached. Cells were fed and treated with pulegone as described above for the TG-1 Assay. After three days of treatment, cells were rinsed twice with PBS, then harvested by adding 3 ml of 0.1 N NaOH (Fisher) to each well and scraping with a rubber policeman. The supernatants were transferred to 16 mm×100 mm glass test tubes with teflon-coated caps and incubated for 1 hour at 70° C. After cooling to room temperature, a 50 μl aliquot was removed for protein determination (Pierce BCA assay, Rockford, Ill.). To each tube 320 μl of 1 N HCl and 2.5 ml of chloroform were added and the tubes mixed well. The tubes were then placed on a tumbler and agitated for thirty minutes. The mixtures were then centrifuged for 10 minutes at 2000×g. 2 mL of chloroform were removed from the organic phase and placed in an autosampler vial. The samples were then dried evaporated under N2, resuspended in 60 μl of chloroform:methanol 2:1 and transferred to an autosampler insert microtube which was placed inside another autosampler vial whcih was sealed. 40 μl of the sample was spotted (Camag Automatic TLC Sampler III, Wilmington, N.C.) on silica TLC plates (Whatman 4807-700) and the plates were developed in horizontal chambers (Camag) using the following solvent system: 1. 95:4.5:0.5 chloroform, methanol, acetic acid and 2. 60:40:2 hexane, ethyl ether, acetic acid. Following immersion in 10% copper sulfate in 8% phosphoric acid, plates were charred at 165° C. for 20 minutes and then read in a densitometer (Camag TLC Scanner II). The results were expressed in ng cermaides/μg protein.
(§2) Concentrations used in the examples below are of pulegone in a corn oil droplet. The in vitro concentration may not be relevant to in vivo concentration because there is partitioning between the oil and the culture medium. The medium concentration of the active is not the oil droplet concentration of the active. For the pulegone to elicit its effect on the cultured cells, it must diffuse out of the corn oil into the culture medium where it is then accessible to the cells. The pulegone concentration in the culture medium is therefore considerably less than the concentration in the corn oil droplet.

[2] = test system: human keratinocytes; test: Transglutaminase (TG-1) Assay; settings: for TG-1/DNA % of CONTROL / TG-1/DNA (Absorbance/Arbitrary Units of DNA ± Standard Deviation): three days
Experimental: as §1
A sample of the keratinocytes grown in the keratinocyte culture described above, were placed in KGM (2 ml per well) at 0.2 million cells/plate in 6-well plates and re-grown for five days until the cells reached approximately […], since TG-1 only begins to become expressed after confluence. […] One set of triplicate wells was left untreated to serve as control. After three days of incubation, cells were washed thoroughly with phosphate buffered saline (PBS, 10 mM sodium phosphate, 138 mM sodium chloride, 2.7 mM potassium chloride, pH 7.4) and placed at −70° C. for 2 hours. Cells were then thawed for two hours. The DNA content of cells was quantified by using the DNA-binding fluorophore, bis-benzimidazole (Hoechst 33258) and measuring the specific fluorescence of the DNA-bound fluorophore (360 nm excitation, 450 nm emission). Cellular TG-1 levels were determined by using a transglutaminase-1 (TG-1) specific monoclonal antibody as the primary antibody (BC1, Amersham, UK) and a peroxidase labeled rabbit antimouse IgG as the secondary antibody (Amersham, UK). The plates were blocked at room temperature with 5% nonfat milk in Tris-buffered saline (TBS, 10 mM Tris, 150 mM NaCL, pH 8.0) for one hour followed by two hours incubation with the primary antibody (1:4000 dilution) in 1% milk/TBS at room temperature. After rinsing the plates three times with 1% milk/TBS containing 0.05% Tween 20 (Bio-Rad, Hercules, Calif.), the plates were incubated with a 1:4000 dilution of the secondary antibody at room temperature for two hours. The plates were then rinsed three times with 1% milk/0.05% Tween 20/TBS and three times with PBS. Color was developed by incubation with o-phenylene-diamine (Sigma, St. Louis, Mo.) and hydrogen peroxide (Sigma) dissolved in a 1:1 mixture of 0.2 M dibasic sodium phosphate (Sigma) and 0.1 M citric acid at pH 5.0(Sigma). Solutions were transferred to 4 mL plastic cuvets (Fisher Scientific, Pittsburgh, Pa.) and the absorbance was read at 492 nm on an Ultraspec 3000 spectrophotometer (Pharmacia, Piscataway, N.J.) and TG-1 levels were expressed as absorbence/DNA fluoroscence.
as §2

[3] = test system: human keratinocytes; test: Glucose Uptake Assay (3H 2-deoxy-glucose); settings: for GLUCOSE UPTAKE % of CONTROL / GLUCOSE UPTAKE (cpm/μg PROTEIN ± S.D.): 4 hours preincubation
Experimental: as §1
A sample of the keratinocytes grown in the keratinocyte culture described above, were plated in KGM medium at either 0.5 or 1 million cells/plate in six well plates and incubated for 4 days. The medium was then aspirated, and the wells were rinsed twice with Phosphate Buffered Saline (PBS), then the plates were incubated (1 mL/well) for 24 hours. The medium was replaced with fresh KBM, 10 μl of corn oil containing pulegone at various concentrations were added and cells were allowed to incubate (for 4 hours at 37° C.) before 2 μCi of ^3H 2-deoxy-glucose (Amersham, UK) were added to each well. Samples were then incubated for one hour. The medium was aspirated and wells were rinsed three times with PBS before the addition of 500 μL of 0.1N NaOH/well. After 10 minutes of agitation on a shaker, a 25 μL aliquot was removed for protein analysis, and 200 μL were transferred to a scintillation vial containing 5 mL Scintillation cocktail (Scintiverse) and counting was performed on a Beckman counter. ^3H-Glucose uptake results were expressed as CPM/μg protein.
as §2

[4] = pulegone 1% in corn oil droplet
[5] = pulegone 2.5% in corn oil droplet
[6] = pulegone 5% in corn oil droplet

CC(C)=C1CCC(C)CC1=O (stereo not shown) [Pulegone, 5-Methyl-2-(1-methylethylidene)cyclohexanone]
CERAMIDES % of CONTROL [1, 4]: 65%
CERAMIDES (ng/μg PROTEIN ± S.D.) [1, 4]: 8.97 ± 1.17 ng/μg PROTEIN
CERAMIDES % of CONTROL [1, 5]: 171%
CERAMIDES (ng/μg PROTEIN ± S.D.) [1, 5]: 23.8 ± 11.0 ng/μg PROTEIN
CERAMIDES % of CONTROL [1, 6]: 308%
CERAMIDES (ng/μg PROTEIN ± S.D.) [1, 6]: 42.8 ± 6.91 ng/μg PROTEIN
expression of ceramides in comparison to untreated keratinocytes ([1]; pulegone in corn oil): increased expression of ceramides
TG-1/DNA % of CONTROL [2, 4]: 121%
TG-1/DNA (Absorbance/Arbitrary Units of DNA ± Standard Deviation) [2, 4]: 15.45 ± 2.32 Absorbance/Arbitrary Units of
TG-1/DNA % of CONTROL [2, 5]: 196%
TG-1/DNA (Absorbance/Arbitrary Units of DNA ± Standard Deviation) [2, 5]: 24.96 ± 4.85 Absorbance/Arbitrary Units of
TG-1/DNA % of CONTROL [2, 6]: 286%
TG-1/DNA (Absorbance/Arbitrary Units of DNA ± Standard Deviation) [2, 6]: 36.40 ± 0.89 Absorbance/Arbitrary Units of
transglutaminase-1 expression in comparison to untreated keratinocytes ([2]; pulegone at 2.5% and 5% in corn oil): increased transglutaminase-1 expression
GLUCOSE UPTAKE % of CONTROL [3, 4]: 77%
GLUCOSE UPTAKE (cpm/μg PROTEIN ± S.D.) [3, 4]: 3.71 ± 0.35 cpm/μg PROTEIN
GLUCOSE UPTAKE % of CONTROL [3, 6]: 189%
GLUCOSE UPTAKE (cpm/μg PROTEIN ± S.D.) [3, 6]: 9.14 ± 0.69 cpm/μg PROTEIN
glucose uptake ([3]; pulegone in corn oil): significantly increased glucose uptake

From US6391324B1, “Cosmetic skin care compositions containing pulegone” (Unilever Home & Personal Care USA, Division of Conopco, priority 2000, dated 2002)
